Where two headings read alike, the source gives them in different places. Positions of bridges follow the written chain, without caps; N, C: chain ends. Residues, ends and D or L forms follow the SMILES beside them.
What was measured:
[1] = target: hNav1.3 (Homo sapiens, UniProt Q9NY46); assay: cell-based; conditions: for IC50: IonWorks Quattro, read-out: IWQ Use Nav1.3
[2] = target: hNav1.7 (Homo sapiens, UniProt Q15858); assay: cell-based; assay type: cell-based; conditions: for IC50: IonWorks Quattro, read-out: IWQ Use Nav1.7
hNav1.7, sequence (Q15858 whole entry, looked up): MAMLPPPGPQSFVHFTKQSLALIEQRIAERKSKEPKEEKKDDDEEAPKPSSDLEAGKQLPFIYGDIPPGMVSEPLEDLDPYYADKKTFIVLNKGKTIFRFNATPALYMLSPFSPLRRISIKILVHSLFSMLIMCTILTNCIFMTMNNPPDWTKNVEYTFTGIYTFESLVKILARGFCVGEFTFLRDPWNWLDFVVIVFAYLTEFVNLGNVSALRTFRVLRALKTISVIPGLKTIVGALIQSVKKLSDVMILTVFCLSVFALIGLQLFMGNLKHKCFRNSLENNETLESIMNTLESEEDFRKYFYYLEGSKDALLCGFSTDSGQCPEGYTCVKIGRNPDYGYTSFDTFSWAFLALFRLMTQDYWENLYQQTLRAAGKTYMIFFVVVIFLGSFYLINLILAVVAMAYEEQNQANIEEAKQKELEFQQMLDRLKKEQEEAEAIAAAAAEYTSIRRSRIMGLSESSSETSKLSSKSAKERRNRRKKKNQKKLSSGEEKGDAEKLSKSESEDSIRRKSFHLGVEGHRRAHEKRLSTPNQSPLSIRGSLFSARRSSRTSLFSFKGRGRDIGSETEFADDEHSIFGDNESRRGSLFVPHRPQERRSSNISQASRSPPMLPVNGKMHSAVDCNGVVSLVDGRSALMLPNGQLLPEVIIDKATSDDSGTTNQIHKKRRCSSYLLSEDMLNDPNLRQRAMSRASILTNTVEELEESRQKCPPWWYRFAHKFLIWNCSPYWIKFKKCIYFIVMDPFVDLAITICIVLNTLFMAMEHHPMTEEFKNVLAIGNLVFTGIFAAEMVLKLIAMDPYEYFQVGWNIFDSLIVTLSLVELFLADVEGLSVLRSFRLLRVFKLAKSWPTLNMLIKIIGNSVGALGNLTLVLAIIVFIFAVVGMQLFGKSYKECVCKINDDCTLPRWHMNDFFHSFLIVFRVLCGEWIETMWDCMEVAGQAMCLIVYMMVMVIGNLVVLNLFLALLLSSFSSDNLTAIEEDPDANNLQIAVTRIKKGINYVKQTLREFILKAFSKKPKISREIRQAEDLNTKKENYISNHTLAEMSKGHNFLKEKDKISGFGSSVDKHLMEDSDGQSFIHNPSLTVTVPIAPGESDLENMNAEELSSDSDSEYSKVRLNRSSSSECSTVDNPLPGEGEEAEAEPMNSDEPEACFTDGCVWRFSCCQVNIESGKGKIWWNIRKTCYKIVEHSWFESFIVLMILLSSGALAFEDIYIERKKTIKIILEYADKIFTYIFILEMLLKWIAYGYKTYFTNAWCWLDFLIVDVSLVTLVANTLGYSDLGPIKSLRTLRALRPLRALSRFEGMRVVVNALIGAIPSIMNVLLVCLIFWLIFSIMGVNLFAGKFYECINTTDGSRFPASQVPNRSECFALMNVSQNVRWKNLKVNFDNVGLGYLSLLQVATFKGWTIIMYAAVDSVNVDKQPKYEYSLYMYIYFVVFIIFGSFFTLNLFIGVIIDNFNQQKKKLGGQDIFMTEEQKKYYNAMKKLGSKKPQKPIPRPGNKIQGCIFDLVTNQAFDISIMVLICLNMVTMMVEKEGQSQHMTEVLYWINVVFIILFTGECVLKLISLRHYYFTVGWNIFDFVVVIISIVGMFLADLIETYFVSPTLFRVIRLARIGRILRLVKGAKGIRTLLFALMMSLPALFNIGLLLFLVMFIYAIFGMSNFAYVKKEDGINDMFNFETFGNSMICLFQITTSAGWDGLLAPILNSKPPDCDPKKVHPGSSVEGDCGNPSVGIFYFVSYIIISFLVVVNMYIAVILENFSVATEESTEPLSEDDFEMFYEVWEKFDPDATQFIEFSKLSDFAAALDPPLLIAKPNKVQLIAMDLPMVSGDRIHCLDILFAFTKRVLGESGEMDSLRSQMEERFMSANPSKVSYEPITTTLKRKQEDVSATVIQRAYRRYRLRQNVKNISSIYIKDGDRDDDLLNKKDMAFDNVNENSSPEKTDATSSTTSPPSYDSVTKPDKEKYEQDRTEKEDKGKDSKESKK

hNav1.3, sequence (Q9NY46 whole entry, looked up): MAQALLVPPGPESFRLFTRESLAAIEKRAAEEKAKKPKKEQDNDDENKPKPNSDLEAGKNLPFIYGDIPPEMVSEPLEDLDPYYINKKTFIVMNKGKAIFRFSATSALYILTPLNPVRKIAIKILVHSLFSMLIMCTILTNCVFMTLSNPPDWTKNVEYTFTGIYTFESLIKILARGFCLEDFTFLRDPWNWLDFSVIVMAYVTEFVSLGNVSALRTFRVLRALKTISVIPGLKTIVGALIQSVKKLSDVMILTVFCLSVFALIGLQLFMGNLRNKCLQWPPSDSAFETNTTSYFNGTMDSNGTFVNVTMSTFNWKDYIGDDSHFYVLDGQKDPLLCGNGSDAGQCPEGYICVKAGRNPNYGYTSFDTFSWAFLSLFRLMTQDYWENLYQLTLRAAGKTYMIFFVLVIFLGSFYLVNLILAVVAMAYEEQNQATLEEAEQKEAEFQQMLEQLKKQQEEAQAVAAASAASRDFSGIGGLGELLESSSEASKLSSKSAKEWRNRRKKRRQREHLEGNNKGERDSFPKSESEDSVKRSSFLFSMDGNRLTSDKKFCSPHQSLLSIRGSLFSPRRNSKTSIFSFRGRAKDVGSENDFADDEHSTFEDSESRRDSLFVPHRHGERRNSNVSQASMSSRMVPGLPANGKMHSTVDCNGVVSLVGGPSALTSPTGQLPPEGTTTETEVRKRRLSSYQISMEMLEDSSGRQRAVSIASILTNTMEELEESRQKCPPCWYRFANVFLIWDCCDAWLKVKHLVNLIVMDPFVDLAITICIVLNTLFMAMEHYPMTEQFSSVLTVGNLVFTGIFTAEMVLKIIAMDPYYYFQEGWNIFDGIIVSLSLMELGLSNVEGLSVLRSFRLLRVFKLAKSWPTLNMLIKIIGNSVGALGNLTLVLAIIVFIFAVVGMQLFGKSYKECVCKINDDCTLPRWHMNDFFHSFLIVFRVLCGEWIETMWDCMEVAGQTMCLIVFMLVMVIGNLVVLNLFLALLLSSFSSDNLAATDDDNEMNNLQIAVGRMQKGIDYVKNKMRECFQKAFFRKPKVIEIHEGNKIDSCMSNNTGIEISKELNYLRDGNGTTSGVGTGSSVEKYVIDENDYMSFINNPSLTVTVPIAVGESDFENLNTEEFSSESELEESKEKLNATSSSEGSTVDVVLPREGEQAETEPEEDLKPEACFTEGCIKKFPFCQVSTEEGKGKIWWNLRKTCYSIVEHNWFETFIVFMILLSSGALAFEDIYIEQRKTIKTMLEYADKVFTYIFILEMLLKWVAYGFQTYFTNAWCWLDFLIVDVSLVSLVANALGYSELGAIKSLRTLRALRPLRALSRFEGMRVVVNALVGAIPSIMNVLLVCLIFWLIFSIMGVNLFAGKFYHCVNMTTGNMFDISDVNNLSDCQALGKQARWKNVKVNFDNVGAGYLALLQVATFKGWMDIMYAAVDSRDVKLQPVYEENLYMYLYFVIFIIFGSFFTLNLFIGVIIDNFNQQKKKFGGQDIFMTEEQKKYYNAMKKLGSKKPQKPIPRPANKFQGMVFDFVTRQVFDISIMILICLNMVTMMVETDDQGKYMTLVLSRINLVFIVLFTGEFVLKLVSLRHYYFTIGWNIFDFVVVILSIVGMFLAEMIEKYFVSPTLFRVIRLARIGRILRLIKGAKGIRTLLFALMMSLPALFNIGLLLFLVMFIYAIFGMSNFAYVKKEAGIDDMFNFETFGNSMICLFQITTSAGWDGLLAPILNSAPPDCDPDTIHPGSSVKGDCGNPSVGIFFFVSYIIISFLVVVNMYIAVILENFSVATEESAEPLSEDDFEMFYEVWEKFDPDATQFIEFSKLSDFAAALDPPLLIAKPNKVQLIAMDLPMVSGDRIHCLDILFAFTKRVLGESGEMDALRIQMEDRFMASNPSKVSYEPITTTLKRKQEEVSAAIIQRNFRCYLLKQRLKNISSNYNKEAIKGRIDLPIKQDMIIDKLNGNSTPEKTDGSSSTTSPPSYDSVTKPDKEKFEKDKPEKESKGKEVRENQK

## CC[C@H](C)[C@@H]1NC(=O)[C@@H]2CSSC[C@@H]3NC(=O)[C@H](C(C)C)NC(=O)[C@H](CC(C)C)NC(=O)[C@H](CC(N)=O)NC(=O)[C@@H]4CCCN4C(=O)[C@H](CCCNC(=N)N)NC(=O)[C@H](CSSC[C@H](NC(=O)[C@@H](N)CC(=O)O)C(=O)N[C@@H](CC(C)C)C(=O)NCC(=O)N[C@@H](Cc4ccccc4)C(=O)N[C@@H](CCSC)C(=O)N[C@@H](CCCNC(=N)N)C(=O)N[C@@H](CCCCN)C(=O)N2)NC(=O)[C@H](CSSC[C@@H](C(=O)N[C@@H](CCCCN)C(=O)N[C@@H](CCC(=O)O)C(=O)N[C@H](C(=O)N[C@@H](Cc2ccccc2)C(N)=O)C(C)C)NC(=O)[C@H](Cc2c[nH]c4ccccc24)NC(=O)[C@H](CCCCN)NC(=O)[C@H](Cc2cnc[nH]2)NC(=O)[C@H]([C@@H](C)O)NC(=O)[C@H](CCCNC(=N)N)NC(=O)[C@H](CO)NC3=O)NC(=O)[C@H](CCCCN)NC(=O)[C@H](CC(=O)O)NC(=O)[C@H](CC(N)=O)NC(=O)[C@H](CC(=O)O)NC(=O)[C@@H]2CCCN2C1=O [compound 32] (H-DCLGFMRKCIPDNDKCCRPNLVCSRTHKWCKEVF-NH2; disulfide 2-17, 9-23, 16-30)
[1]; Table 25, use, […]
  IC50: 9140 nM
[2]; Table 25, use, […]
  IC50: 13900 nM

## CC[C@H](C)[C@@H]1NC(=O)[C@@H]2CSSC[C@@H]3NC(=O)[C@H](C(C)C)NC(=O)[C@H](CC(C)C)NC(=O)[C@H](CC(N)=O)NC(=O)[C@@H]4CCCN4C(=O)[C@H](CCCNC(=N)N)NC(=O)[C@H](CSSC[C@H](NC(=O)[C@@H](N)CC(=O)O)C(=O)N[C@@H](CC(C)C)C(=O)NCC(=O)N[C@@H](Cc4ccccc4)C(=O)N[C@@H](CCSC)C(=O)N[C@@H](CCCNC(=N)N)C(=O)N[C@@H](CCCCN)C(=O)N2)NC(=O)[C@H](CSSC[C@@H](C(=O)N[C@@H](CCCCN)C(=O)N[C@@H](Cc2ccc(O)cc2)C(=O)N[C@H](C(=O)N[C@@H](Cc2ccccc2)C(N)=O)C(C)C)NC(=O)[C@H](CCCCN)NC(=O)[C@H](CCCCN)NC(=O)[C@H](Cc2c[nH]cn2)NC(=O)[C@H]([C@@H](C)O)NC(=O)[C@H](CCCNC(=N)N)NC(=O)[C@H](CO)NC3=O)NC(=O)[C@H](CCCCN)NC(=O)[C@H](CC(=O)O)NC(=O)[C@H](CC(N)=O)NC(=O)[C@H](CC(=O)O)NC(=O)[C@@H]2CCCN2C1=O [compound 56] (H-DCLGFMRKCIPDNDKCCRPNLVCSRTHKKCKYVF-NH2; disulfide 2-17, 9-23, 16-30)
[1]
  Nav1.4/Nav1.3: 1.1
[2]
  Nav1.4/Nav1.7: 1.4
  Nav1.7/Nav1.3: 0.8

## CC[C@H](C)[C@@H]1NC(=O)[C@@H]2CSSC[C@@H]3NC(=O)[C@H](C(C)C)NC(=O)[C@H](CC(C)C)NC(=O)[C@H](CC(N)=O)NC(=O)[C@@H]4CCCN4C(=O)[C@H](CCCNC(=N)N)NC(=O)[C@H](CSSC[C@H](NC(=O)[C@@H](N)CC(=O)O)C(=O)N[C@@H](CC(C)C)C(=O)NCC(=O)N[C@@H](Cc4ccccc4)C(=O)N[C@@H](CCSC)C(=O)N[C@@H](CCCNC(=N)N)C(=O)N[C@@H](CCCCN)C(=O)N2)NC(=O)[C@H](CSSC[C@@H](C(=O)N[C@@H](CCCCN)C(=O)N[C@@H](Cc2ccc(O)cc2)C(=O)N[C@H](C(=O)N[C@@H](Cc2ccccc2)C(N)=O)C(C)C)NC(=O)[C@H](Cc2c[nH]c4ccccc24)NC(=O)[C@H](CCCCN)NC(=O)[C@H](Cc2c[nH]c4ccccc24)NC(=O)[C@H]([C@@H](C)O)NC(=O)[C@H](CCCNC(=N)N)NC(=O)[C@H](CO)NC3=O)NC(=O)[C@H](CCCCN)NC(=O)[C@H](CC(=O)O)NC(=O)[C@H](CC(N)=O)NC(=O)[C@H](CC(=O)O)NC(=O)[C@@H]2CCCN2C1=O [compound 84] (H-DCLGFMRKCIPDNDKCCRPNLVCSRTWKWCKYVF-NH2; disulfide 2-17, 9-23, 16-30)
[1]; Table 23, use, […]
  IC50: 590 nM
[2]; Table 23, use, […]
  IC50: 320 nM

## CC[C@H](C)[C@@H]1NC(=O)[C@@H]2CSSC[C@@H]3NC(=O)[C@H](C(C)C)NC(=O)[C@H](CC(C)C)NC(=O)[C@H](CC(N)=O)NC(=O)[C@@H]4CCCN4C(=O)[C@H](CCCNC(=N)N)NC(=O)[C@H](CSSC[C@H](NC(=O)[C@@H](N)CC(=O)O)C(=O)N[C@@H](CC(C)C)C(=O)NCC(=O)N[C@@H](Cc4ccccc4)C(=O)N[C@@H](CCSC)C(=O)N[C@@H](CCCNC(=N)N)C(=O)N[C@@H](CCCCN)C(=O)N2)NC(=O)[C@H](CSSC[C@@H](C(=O)N[C@@H](CCCCN)C(=O)N[C@@H](Cc2ccc(O)cc2)C(=O)N[C@H](C(=O)N[C@@H](Cc2ccccc2)C(N)=O)C(C)C)NC(=O)[C@H](Cc2c[nH]c4ccccc24)NC(=O)[C@H](CCCCN)NC(=O)[C@H](Cc2cnc[nH]2)NC(=O)[C@H](Cc2cnc[nH]2)NC(=O)[C@H](CCCNC(=N)N)NC(=O)[C@H](CO)NC3=O)NC(=O)[C@H](CCCCN)NC(=O)[C@H](CC(=O)O)NC(=O)[C@H](CC(N)=O)NC(=O)[C@H](CC(=O)O)NC(=O)[C@@H]2CCCN2C1=O [compound 337] (H-DCLGFMRKCIPDNDKCCRPNLVCSRHHKWCKYVF-NH2; disulfide 2-17, 9-23, 16-30)
[1]; Table 22, use, […]
  IC50: 80 nM
[2]; Table 22, use, […]
  IC50: 100 nM

## CC[C@H](C)[C@@H]1NC(=O)[C@@H]2CSSC[C@@H]3NC(=O)[C@H](C(C)C)NC(=O)[C@H](CC(C)C)NC(=O)[C@H](CC(N)=O)NC(=O)[C@@H]4CCCN4C(=O)[C@H](CCCNC(=N)N)NC(=O)[C@H](CSSC[C@H](NC(=O)[C@@H](N)CC(=O)O)C(=O)N[C@@H](CC(C)C)C(=O)NCC(=O)NC(C)(C)C(=O)N[C@@H](CC(C)C)C(=O)N[C@@H](CCCNC(=N)N)C(=O)N[C@@H](CCCCN)C(=O)N2)NC(=O)[C@H](CSSC[C@@H](C(=O)N[C@@H](CCCCN)C(=O)N[C@@H](Cc2ccc(O)cc2)C(=O)N[C@H](C(=O)N[C@@H](Cc2ccccc2)C(N)=O)C(C)C)NC(=O)[C@H](Cc2c[nH]c4ccccc24)NC(=O)[C@H](CCCCN)NC(=O)[C@H](Cc2c[nH]cn2)NC(=O)[C@H]([C@@H](C)O)NC(=O)[C@H](CCCNC(=N)N)NC(=O)[C@H](CO)NC3=O)NC(=O)[C@H](CCCCN)NC(=O)[C@H](CC(=O)O)NC(=O)[C@H](CC(N)=O)NC(=O)[C@H](CC(=O)O)NC(=O)[C@@H]2CCCN2C1=O [compound 635]
[1]; use-dependent protocol, hNav1.3
  IC50: 380 nM
[2]; use-dependent protocol, hNav1.7
  IC50: 230 nM

## CC[C@H](C)[C@@H]1NC(=O)[C@@H]2CSSC[C@@H]3NC(=O)[C@H](C(C)C)NC(=O)[C@H](CC(C)C)NC(=O)[C@H](CC(N)=O)NC(=O)[C@@H]4CCCN4C(=O)[C@H](CCCNC(=N)N)NC(=O)[C@H](CSSC[C@H](NC(=O)[C@@H](N)CC(=O)O)C(=O)N[C@@H](CC(C)C)C(=O)NCC(=O)N[C@@H](Cc4ccc(Cl)c(Cl)c4)C(=O)N[C@@H](CCSC)C(=O)N[C@@H](CCCNC(=N)N)C(=O)N[C@@H](CCCCN)C(=O)N2)NC(=O)[C@H](CSSC[C@@H](C(=O)N[C@@H](CCCCN)C(=O)N[C@@H](Cc2ccc(O)cc2)C(=O)N[C@H](C(=O)N[C@@H](Cc2ccccc2)C(N)=O)C(C)C)NC(=O)[C@H](Cc2c[nH]c4ccccc24)NC(=O)[C@H](CCCCN)NC(=O)[C@H](Cc2c[nH]cn2)NC(=O)[C@H]([C@@H](C)O)NC(=O)[C@H](CCCNC(=N)N)NC(=O)[C@H](CO)NC3=O)NC(=O)[C@H](CCCCN)NC(=O)[C@H](CC(=O)O)NC(=O)[C@H](CC(N)=O)NC(=O)[C@H](CC(=O)O)NC(=O)[C@@H]2CCCN2C1=O [compound 653]
[1]; ratio of IWQ Use values, Nav1.4 over Nav1.3
  Nav1.4/Nav1.3: 17.7
[1]; ratio of IWQ Use values, Nav1.7 over Nav1.3
  Nav1.7/Nav1.3: 2.0
[2]; ratio of IWQ Use values, Nav1.4 over Nav1.7
  Nav1.4/Nav1.7: 8.8
